# Results: patent US11534457B2, “Use of dextran sulfate” (priority 2017, dated 2022)
# Test system: severe traumatic brain injury (sTBI)
# Assay: sTBI in rats, brain gene expression arrays and pathway analysis (Example 9)
# Assay type: in vivo, Male Wistar rats
# Conditions: 2 days after TBI
# Experimental: The experimental protocol used in this study was approved by the Ethical Committee of the Catholic University of Rome, according to international standards and guidelines for animal care. Male Wistar rats of 300-350 g body weight were fed with standard laboratory diet and water ad libitum in a controlled environment. As the anesthetic mixture, the animals received 35 mg/kg b.w. ketamine and 0.25 mg/kg body weight midazolam by i.p. injection. Severe traumatic brain injury (sTBI) was induced by dropping a 450 g weight from 2 m height on to the rat head that had been protected by a metal disk previously fixed on the skull, according to the “weight drop” impact acceleration model (Marmarou et al., A new model of diffuse brain injury in rats. Part I: Pathophysiology and biomechanics. J Neurosurg. 1994; 80: 291-300). […] At the end of each period of treatment, rats were anesthetized again and then immediately sacrificed.
# LMW-DS (Tikomed AB) was provided at a stock concentration of 20 mg/ml and was kept in a temperature-monitored refrigerator at 4° C. LMW-DS aliquots were diluted to the appropriate dosing concentration in sterile saline prior to delivery of a single subcutaneous injection.
# Three doses of LMW-DS were administered subcutaneously 30 minutes post-TBI. The animals were sacrificed at 2 days post-TBI. The animals were divided into the following subgroups:
# Three doses of LMW-DS were administered subcutaneously 30 minutes post-TBI. The animals were sacrificed at 7 days post-TBI. The animals were divided into the following subgroups:
# An in vivo craniectomy was performed on all animals during anesthesia. After carefully removing the rat's skull, the brain was exposed and removed with a surgical spatula and quickly dropped in RNALater and preserved at 4° C. for further processing.
# RNA extraction and array processing was carried out by SourceBioscience. The arrays used were the Agilent Rat expression arrays.
# Statistical analysis was carried out using the Metaboanalyst software package. Gene expression changes of 10% with a p<0.05 were regarded as significant.
# Pathway analysis of the differentially regulated genes was carried out using the Ingenuity pathway analysis package. The analysis was performed with special reference to pathways and molecular processes and diseases associated with neurodegenerative disease, including dementia, Alzheimer's disease, ALS, TBI and stroke, and with scarring and fibrosis, including glaucoma and normal pressure hydrocephalus (NPH) after subarachnoid haemorrhage.
# [1] = TBI + 5 mg/kg LMW-DS, relative to control
substance,measurement,setting,value
low molecular weight dextran sulfate [LMW-DS],effect on canonical pathway Adrenomedullin Signaling pathway,TBI + 5 mg/kg LMW-DS,Inhibited
same,effect on canonical pathway NF-κ13 Signaling,TBI + 5 mg/kg LMW-DS,Inhibited
same,effect on canonical pathway Osteoarthritis Pathway,TBI + 5 mg/kg LMW-DS,Inhibited
same,effect on canonical pathway Role of NFAT in Cardiac Hypertrophy,TBI + 5 mg/kg LMW-DS,Inhibited
same,"z score, Abdominal cancer",TBI + 5 mg/kg LMW-DS,−2.553
same,"z score, Abdominal carcinoma",TBI + 5 mg/kg LMW-DS,−2.631
same,"z score, Abdominal neoplasm",TBI + 5 mg/kg LMW-DS,−0.927
same,"z score, Apoptosis",TBI + 5 mg/kg LMW-DS,0.601
same,"z score, Behavior",TBI + 5 mg/kg LMW-DS,−2.009
same,"z score, Carcinoma",TBI + 5 mg/kg LMW-DS,−2.071
same,"z score, Cell death",TBI + 5 mg/kg LMW-DS,0.051
same,"z score, Cell death of antigen presenting cells",TBI + 5 mg/kg LMW-DS,−0.62
same,"z score, Cell death of immune cells",TBI + 5 mg/kg LMW-DS,−1
same,"z score, Cell death of tumor cell lines",TBI + 5 mg/kg LMW-DS,−1.947
same,"z score, Cell movement",TBI + 5 mg/kg LMW-DS,−3.723
same,"z score, Cell movement of tumor cell lines",TBI + 5 mg/kg LMW-DS,−2.078
same,"z score, Cell proliferation of leukocyte cell lines",TBI + 5 mg/kg LMW-DS,−2.754
same,"z score, Cellular homeostasis",TBI + 5 mg/kg LMW-DS,−3.19
same,"z score, Chemotaxis",TBI + 5 mg/kg LMW-DS,−3.642
same,"z score, Development of vasculature",TBI + 5 mg/kg LMW-DS,−1.534
same,"z score, Digestive organ tumor",TBI + 5 mg/kg LMW-DS,−1.149
same,"z score, Digestive system cancer",TBI + 5 mg/kg LMW-DS,−2.221
same,"z score, Edema",TBI + 5 mg/kg LMW-DS,3.386
same,"z score, Epithelial neoplasm",TBI + 5 mg/kg LMW-DS,−1.393
same,"z score, Extracranial solid tumor",TBI + 5 mg/kg LMW-DS,−0.992
same,"z score, Feeding",TBI + 5 mg/kg LMW-DS,−0.895
same,"z score, Growth of tumor",TBI + 5 mg/kg LMW-DS,−1.233
same,"z score, Hematologic cancer",TBI + 5 mg/kg LMW-DS,−1.067
same,"z score, Incidence of tumor",TBI + 5 mg/kg LMW-DS,−0.731
same,"z score, Leukocyte migration",TBI + 5 mg/kg LMW-DS,−2.163
same,"z score, Leukopoiesis",TBI + 5 mg/kg LMW-DS,−3.549
same,"z score, Lymphocyte homeostasis",TBI + 5 mg/kg LMW-DS,−2.94
same,"z score, Lymphocytic cancer",TBI + 5 mg/kg LMW-DS,−0.48
same,"z score, Lymphocytic neoplasm",TBI + 5 mg/kg LMW-DS,−0.48
same,"z score, Lymphopoiesis",TBI + 5 mg/kg LMW-DS,−3.105
same,"z score, Lymphoproliferative disorder",TBI + 5 mg/kg LMW-DS,−0.48
same,"z score, Malignant solid tumor",TBI + 5 mg/kg LMW-DS,−1.492
same,"z score, Metabolism of hormone",TBI + 5 mg/kg LMW-DS,−1.632
same,"z score, Migration of cells",TBI + 5 mg/kg LMW-DS,−3.087
same,"z score, Necrosis",TBI + 5 mg/kg LMW-DS,−1.503
same,"z score, Neoplasia of leukocytes",TBI + 5 mg/kg LMW-DS,−0.48
same,"z score, Non-melanoma solid tumor",TBI + 5 mg/kg LMW-DS,−1.249
same,"z score, Proliferation of hematopoietic progenitor cells",TBI + 5 mg/kg LMW-DS,−2.951
same,"z score, Quantity of cells",TBI + 5 mg/kg LMW-DS,−3.092
same,"z score, Quantity of epithelial tissue",TBI + 5 mg/kg LMW-DS,−0.028
same,"z score, Quantity of neuroglia",TBI + 5 mg/kg LMW-DS,−1.446
same,"z score, Resorption of bone",TBI + 5 mg/kg LMW-DS,−0.478
same,"z score, Secretion of molecule",TBI + 5 mg/kg LMW-DS,1.634
same,"z score, Synthesis of hormone",TBI + 5 mg/kg LMW-DS,−1.632
same,"z score, Transport of molecule",TBI + 5 mg/kg LMW-DS,0.248
same,"z score, Vasculogenesis",TBI + 5 mg/kg LMW-DS,−2.274
same,"z score, canonical pathway Adrenomedullin Signaling pathway",[1],−2.236
same,"z score, canonical pathway NF-κb Signaling",[1],−2
same,"z score, canonical pathway Osteoarthritis Pathway",[1],−2.646
same,"z score, canonical pathway Role of NFAT in Cardiac Hypertrophy",[1],−1.63
same,"z score, Apoptosis",TBI + 15 mg/kg LMW-DS,−0.502
same,"z score, Apoptosis of tumor cell lines",TBI + 15 mg/kg LMW-DS,0.09
same,"z score, Behavior",TBI + 15 mg/kg LMW-DS,−0.139
same,"z score, Cell death",TBI + 15 mg/kg LMW-DS,−0.141
same,"z score, Necrosis",TBI + 15 mg/kg LMW-DS,−0.477
same,"z score, Quantity of blood cells",TBI + 15 mg/kg LMW-DS,−0.34
same,"z score, Quantity of cells",TBI + 15 mg/kg LMW-DS,−0.797
same,"z score, Quantity of lymphocytes",TBI + 15 mg/kg LMW-DS,−0.943
same,Diseases or functions annotation: Abdominal cancer,TBI + 1 mg/kg LMW-DS,Inhibited
same,Diseases or functions annotation: Abdominal carcinoma,TBI + 1 mg/kg LMW-DS,Inhibited
same,Diseases or functions annotation: Abdominal neoplasm,TBI + 1 mg/kg LMW-DS,Inhibited
same,Diseases or functions annotation: Activation of blood cells,TBI + 1 mg/kg LMW-DS,Activated
same,Diseases or functions annotation: Activation of cells,TBI + 1 mg/kg LMW-DS,Activated
same,Diseases or functions annotation: Activation of leukocytes,TBI + 1 mg/kg LMW-DS,Activated
same,Diseases or functions annotation: Activation of lymphocytes,TBI + 1 mg/kg LMW-DS,Inhibited
same,Diseases or functions annotation: Adhesion of tumor cell lines,TBI + 1 mg/kg LMW-DS,Activated
same,Diseases or functions annotation: Apoptosis,TBI + 1 mg/kg LMW-DS,Inhibited
same,Diseases or functions annotation: Apoptosis of muscle cells,TBI + 1 mg/kg LMW-DS,Activated
same,Diseases or functions annotation: Behavior,TBI + 1 mg/kg LMW-DS,Activated
same,Diseases or functions annotation: Binding of tumor cell lines,TBI + 1 mg/kg LMW-DS,Activated
same,Diseases or functions annotation: Carcinoma,TBI + 1 mg/kg LMW-DS,Inhibited
same,Diseases or functions annotation: Cell death,TBI + 1 mg/kg LMW-DS,Inhibited
same,Diseases or functions annotation: Cell death of blood cells,TBI + 1 mg/kg LMW-DS,Activated
same,Diseases or functions annotation: Cell death of immune cells,TBI + 1 mg/kg LMW-DS,Activated
same,Diseases or functions annotation: Cell movement,TBI + 1 mg/kg LMW-DS,Activated
same,Diseases or functions annotation: Cell movement of muscle cells,TBI + 1 mg/kg LMW-DS,Inhibited
same,Diseases or functions annotation: Cell movement of vascular smooth muscle cells,TBI + 1 mg/kg LMW-DS,Inhibited
same,Diseases or functions annotation: Cell proliferation of T lymphocytes,TBI + 1 mg/kg LMW-DS,Inhibited
same,Diseases or functions annotation: Cellular homeostasis,TBI + 1 mg/kg LMW-DS,Activated
same,Diseases or functions annotation: Development of connective tissue cells,TBI + 1 mg/kg LMW-DS,Inhibited
same,Diseases or functions annotation: Differentiation of bone cells,TBI + 1 mg/kg LMW-DS,Inhibited
same,Diseases or functions annotation: Differentiation of connective tissue cells,TBI + 1 mg/kg LMW-DS,Activated
same,Diseases or functions annotation: Differentiation of hematopoietic progenitor cells,TBI + 1 mg/kg LMW-DS,Activated
same,Diseases or functions annotation: Differentiation of osteoclasts,TBI + 1 mg/kg LMW-DS,Inhibited
same,Diseases or functions annotation: Digestive organ tumor,TBI + 1 mg/kg LMW-DS,Inhibited
same,Diseases or functions annotation: Experimentally-induced arthritis,TBI + 1 mg/kg LMW-DS,Inhibited
same,Diseases or functions annotation: Extracranial solid tumor,TBI + 1 mg/kg LMW-DS,Activated
same,Diseases or functions annotation: Genital tumor,TBI + 1 mg/kg LMW-DS,Activated
same,Diseases or functions annotation: Incidence of tumor,TBI + 1 mg/kg LMW-DS,Inhibited
same,Diseases or functions annotation: Inflammation of absolute anatomical region,TBI + 1 mg/kg LMW-DS,Inhibited
same,Diseases or functions annotation: Inflammation of body cavity,TBI + 1 mg/kg LMW-DS,Inhibited
same,Diseases or functions annotation: Inflammation of joint,TBI + 1 mg/kg LMW-DS,Inhibited
same,Diseases or functions annotation: Inflammation of organ,TBI + 1 mg/kg LMW-DS,Inhibited
same,Diseases or functions annotation: Inflammatory response,TBI + 1 mg/kg LMW-DS,Activated
same,Diseases or functions annotation: Interaction of mononuclear leukocytes,TBI + 1 mg/kg LMW-DS,Activated
same,Diseases or functions annotation: Leukocyte migration,TBI + 1 mg/kg LMW-DS,Activated
same,Diseases or functions annotation: Leukopoiesis,TBI + 1 mg/kg LMW-DS,Activated
same,Diseases or functions annotation: Lymphopoiesis,TBI + 1 mg/kg LMW-DS,Activated
same,Diseases or functions annotation: Malignant solid tumor,TBI + 1 mg/kg LMW-DS,Inhibited
